Measured values from patent publication US20110065675A1, “AZO DYE RELATED SMALL MOLECULE MODULATORS OF PROTEIN-PROTEIN INTERACTIONS” (University of Miami, priority 2008, published 2011).
Like-named read-outs stand apart in the source and are kept apart here.

How the values were obtained:
[1] = molecular target: human TNF-R1/TNFα (Homo sapiens, UniProt P01375+P19438); experiment: Specificity test: human TNF-R1/TNFα binding inhibition assay; details: for IC50: cell-free binding, read-out: Human TNFR1/TNFα IC50; for Human TNFR1/TNFα log IC50: log of IC50, cell-free binding
Sequence of human TNF-R1/TNFα (Homo sapiens, UniProt P01375+P19438) (P01375 77-233 limits assumed): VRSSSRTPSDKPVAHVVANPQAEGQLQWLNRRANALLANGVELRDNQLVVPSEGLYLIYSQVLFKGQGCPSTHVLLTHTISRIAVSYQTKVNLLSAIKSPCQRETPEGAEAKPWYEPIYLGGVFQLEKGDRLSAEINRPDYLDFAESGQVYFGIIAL
Sequence of human TNF-R1/TNFα (Homo sapiens, UniProt P01375+P19438) (P19438 30-211 limits assumed): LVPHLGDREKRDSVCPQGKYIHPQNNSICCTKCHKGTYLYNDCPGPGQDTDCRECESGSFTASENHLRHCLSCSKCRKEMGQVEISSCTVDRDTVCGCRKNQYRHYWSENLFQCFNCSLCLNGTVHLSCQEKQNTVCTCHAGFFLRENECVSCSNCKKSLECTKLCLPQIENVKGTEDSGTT
Source text: (§1) A main concern for the therapeutic applicability of these compounds and of small molecule PPI inhibitors in general is related to their ability to achieve some acceptable degree of selectivity/specificity for the PPI of interest. To identify compounds that show acceptable specificity for the CD40/CD154 system, their ability to inhibit the TNF-R1/TNF-α PPI was investigated since this is particularly relevant as CD154 is part of the TNF superfamily. The experimental setup used was very similar to the one described in Example 1, but using plate-coated TNF-R1 and TNF-α as ligand (with a corresponding anti-TNF-α mAb as positive control). The concentration of TNF-R1 and TNF-α used were 0.6 μg/mL and 0.02 μg/mL, respectively.

[2] = molecular target: T1, mouse CD40/CD154 (mCD40:mCD154) (Mus musculus, UniProt P27548); experiment: Murine CD40/CD154 binding inhibition assay
T1 construct: (FLAG-tagged) mCD154 (recombinant mouse CD40L, soluble, Alexis Biochemicals); purchased R&D Systems (mCD40/Fc); Alexis Biochemicals (mCD154)
T1 sequence (P27548 112-260 limits assumed): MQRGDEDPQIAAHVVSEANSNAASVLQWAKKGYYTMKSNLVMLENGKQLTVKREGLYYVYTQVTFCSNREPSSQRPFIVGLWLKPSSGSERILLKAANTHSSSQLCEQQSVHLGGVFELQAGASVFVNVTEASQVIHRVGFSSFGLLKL
Procedure: Compounds of interest were also tested in a murine (mouse) model similar to the human one with murine CD40 and CD154 replacing the corresponding human proteins. This serves as additional confirmation of the in vitro inhibitory potential of these compounds, and it was considered important because mouse models are likely to be used as the first in vivo tests. […] The experimental setup used was similar to the one described above, but using mCD40 (recombinant mouse CD40/TNFRSF5/Fc Chimera, soluble, R&D Systems) and (FLAG-tagged) mCD154 (recombinant mouse CD40L, soluble, Alexis Biochemicals). This time, however, a higher concentration of CD154 ligand had to be employed to obtain adequate signals, and after a number of calibration tests, mCD40 coating at 0.3125 μg/mL with mCD154 (mCD40L) at 1.1212 μg/mL range was selected to be used to screen the inhibiting activity of various compounds.
The experiments confirmed that the murine anti-CD154 monoclonal antibody (Taconic, MR1) was active in this system at the expected concentration (˜1 nM range), the human antibody was not, and vice versa, the human mAb was active in the human system, but not in the mouse system. The mouse system provided a similar range of activity with some (up to approximately five-fold) changes in activities compared to that seen in the human system (FIG. 2) (Table 1).

[3] = molecular target: T2, human CD40/CD154 (Homo sapiens, UniProt P29965); experiment: Human CD40/CD154 binding inhibition assay (cell-free, plate-based); details: for Human CD40/CD154 IC50 / IC50: cell-free binding; for Human CD40/CD154 log IC50: log of IC50, cell-free binding
T2 construct: CD154 (soluble human, FLAG-tagged, recombinant from Alexis Biochemicals; MW=18 kDa); purchased Alexis Biochemicals
T2 sequence (P29965 113-261 limits assumed): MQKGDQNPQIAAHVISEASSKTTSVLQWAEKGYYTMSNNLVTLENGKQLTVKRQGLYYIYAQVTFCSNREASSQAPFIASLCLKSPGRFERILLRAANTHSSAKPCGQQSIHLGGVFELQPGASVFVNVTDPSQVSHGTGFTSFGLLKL
Procedure: A 96-well plate-based cell-free in vitro binding inhibition assay, which is a modification of an assay described in U.S. Pat. No. 7,173,046, incorporated by reference in its entirety, has been developed and used for activity screening. Briefly, CD40 is coated at a preselected concentration, and binding of (FLAG-tagged) CD154 is measured by reacting with secondary antibody and using TMB liquid substrate system as a substrate for horseradish peroxidase for reading at 450 nm. The detailed procedure is as follows: Microtiter plates (Nunc F MaxiSorp) were coated with […] of CD40: Fc (human:Fc human, recombinant from Alexis Biochemicals; MW=54 kDa) diluted in PBS pH 7.2 at a preselected concentration of 0.3125 μg/mL. Plates were covered with plate sealer and stored overnight at 4° C. The liquid was removed from the plates and blotted dry. Plates were blocked by washing once with approx. 300 μL/well of Blocking Solution (PBS pH 7.2, 0.05% Tween-20, 1% BSA) and incubated with the same solution for 1 hour at room temperature (RT) or at 4° C. overnight. Coated plates were washed three times with Washing Solution (PBS pH 7.4, 0.05% Tween-20) and blotted dry. A preselected dilution of CD154 (soluble human, FLAG-tagged, recombinant from Alexis Biochemicals; MW=18 kDa) of 0.0087500875 μg/mL range was prepared in 100 mM HEPES, 0.005% BSA pH 7.2. Binding was carried out by adding 100 μL of this CD154 dilution/well and incubating at RT in the presence of test compounds (or blank as negative control). After incubation, the plates were washed with Washing Solution and blotted dry. Bound CD154 was detected with 200 μL/well of secondary antibody mAb ANTI-FLAG M2—Peroxidase Conjugate (anti-FLAG M2-peroxidase HRP conjugate; Sigma-Aldrich) diluted 1:40,000 in Washing Solution. After incubation, the plates were washed and blotted dry. 200 μL/well of the HR-Peroxidase substrate TMB (3,3′,5,5′-tetramethylbenzidine; Sigma-Aldrich) were added, and the plates were incubated for approximately 30 minutes in the dark. The reaction was stopped with 0.5 M H2SO4 and read at 450 nm. All conditions were tested in at least three independent experiments in duplicate or triplicate per plates. Data were normalized and fitted with standard log inhibitor vs. response models using GraphPad Prism 5 to establish median inhibitory ICso values.
A representative result using the monoclonal anti-human CD154 antibody (R&D Systems, monoclonal anti-human CD40 ligand/TNFSF5 antibody, MAB617; MW≈150 kDa used) as positive control is shown in FIG. 1.
Binding inhibition assays with this system provided consistent and well-reproducible results, as FIG. 1 (bottom), focusing on the concentration range of their activities, illustrates. […] The effect of DMSO, which was used as the diluting solvent for the non-water-soluble compounds and is a standard solvent in HTS assays, on the integrity of the assay has been examined. DMSO concentrations above 10% interfere with the binding assay, but concentrations below 3% have no effect. […] Because 5 or 10 mM stock solutions were used, all IC50 values below 250 μM can be considered as unaffected by DMSO.

[4] = system: human TNF-R1/TNFα; experiment: Specificity test: human TNF-R1/TNFα binding inhibition assay
Source text: as §1

[5] = molecular target: T3, CD40 (Homo sapiens, UniProt P25942); experiment: Identification of binding partner: binding to CD40 (pre-incubation, wash-out); details: compound incubated 1 h with CD40, washed, then CD154 added
T3 construct: purchased Alexis Biochemicals
T3 sequence (P25942 21-193 limits assumed): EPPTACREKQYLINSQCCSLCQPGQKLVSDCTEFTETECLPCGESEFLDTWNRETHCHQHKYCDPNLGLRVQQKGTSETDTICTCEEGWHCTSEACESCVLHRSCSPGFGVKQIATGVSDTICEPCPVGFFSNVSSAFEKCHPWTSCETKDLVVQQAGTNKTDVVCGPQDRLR
Source text: It is also of interest to identify whether the compounds bind to the receptor CD40 or its ligand CD154 (CD40L). The main goal is to block the CD40/CD154 costimulatory interaction to achieve altered immune response and long-term tolerance; however, it seems more desirable to achieve this by targeting CD154, which is expressed mainly on activated T cells, since this way a more specific immune suppression could be achieved then by targeting CD40. To evaluate the binding partner of the test compounds, CD40 or CD154 were incubated for one hour with increasing concentrations of the test compounds, and after a wash, their ability to still bind their corresponding protein binding partner (CD154 or CD40, respectively) was assessed using a setup similar to that described before (Example 1).
To test if compounds bind specifically to CD40, the procedure of Example 1 was followed with a modification. After blocking the plates with blocking solution and washing, 100 μL of different dilutions of the compounds were added to the wells and incubated at room temperature (RT) for 1 h to allow binding with CD40 in the absence of its CD154 ligand. The plates were then washed three times with washing solution. CD154 was then added and the amount bound was assessed as before.

[6] = cell-free binding, read-out: Mouse CD40/CD154 IC50
[7] = read-out: Human CD40/CD154 IC50

Molecule | IC50 [1] | Human TNFR1/TNFα log IC50 [1] | IC50 [2, 6] | Mouse CD40/CD154 log IC50 ([2]; log of IC50, cell-free binding) | Human CD40/CD154 IC50 [3] | IC50 [3, 7] | Human CD40/CD154 log IC50 [3] | IC50 ([2]; log of IC50, cell-free binding, read-out: Mouse CD40/CD154 log IC50 (converted)) | IC50 ([3]; read-out: Human CD40/CD154 IC50 (ug/mL) (converted)) | Specificity [4] | Inhibitory activity for all interactions tested ([4]; all interactions tested (CD40/CD154, TNF-R1/TNF-α)) | Binding to CD40 [5]
O=C(Nc1ccc2c(O)c(N=Nc3ccc(N=Nc4ccc(S(=O)(=O)[O-])cc4)cc3S(=O)(=O)[O-])c(S(=O)(=O)[O-])cc2c1)Nc1ccc2c(O)c(N=Nc3ccc(N=Nc4ccc(S(=O)(=O)[O-])cc4)cc3S(=O)(=O)[O-])c(S(=O)(=O)[O-])cc2c1.[Na+].[Na+].[Na+].[Na+].[Na+].[Na+] [Direct red 80, direct red 80] | 1430 µM | −2.85 | 5.9 µM | −5.23 | 1.9 µg/mL | 1.8 µM | −5.73 | – | – | – | – | –
O.O=C([O-])c1ccccc1-c1c2cc(I)c(=O)c(I)c-2oc2c(I)c([O-])c(I)cc12.[Na+].[Na+] [Erythrosin B (FD&C red 3), Erythrosin B, reference compound] | 9 µM | −5.04 | 5.9 µM | −5.23 | 2.0 µg/mL | 1.9 µM | −5.72 | – | – | nonspecific promiscuous inhibitor | ~10 µM | ubiquitous binder
direct fast red B | 2160 µM | −2.67 | 16.7 µM | −4.78 | 5.7 µg/mL | 14 µM | −4.86 | – | – | – | – | –

Further lines, with some results ahead:

IC50 [1] | Human TNFR1/TNFα log IC50 [1] | IC50 [2, 6] | Mouse CD40/CD154 log IC50 ([2]; log of IC50, cell-free binding) | Human CD40/CD154 IC50 [3] | IC50 [3, 7] | Human CD40/CD154 log IC50 [3] | IC50 ([2]; log of IC50, cell-free binding, read-out: Mouse CD40/CD154 log IC50 (converted)) | IC50 ([3]; read-out: Human CD40/CD154 IC50 (ug/mL) (converted)) | Molecule | Specificity [4] | Inhibitory activity for all interactions tested ([4]; all interactions tested (CD40/CD154, TNF-R1/TNF-α)) | Binding to CD40 [5]
322 µM | −3.49 | 7.4 µM | −5.13 | 4.9 µg/mL | 4.8 µM | −5.32 | – | – | Nc1ccc2cc(S(=O)(=O)[O-])cc(O)c2c1N=Nc1ccc(NC(=O)Nc2ccc(N=Nc3c(N)ccc4cc(S(=O)(=O)[O-])cc(O)c34)c(S(=O)(=O)[O-])c2)cc1S(=O)(=O)[O-].[Na+].[Na+].[Na+].[Na+] [Direct red 75 (chlorazol fast pink), direct red 75] | – | – | –
> 1000 µM | >−3.0 | 33.8 µM | −4.47 | 6.9 µg/mL | 13.6 µM | −4.87 | – | – | O=C(Nc1ccc2c(O)c(N=Nc3ccc(N=Nc4ccc(S(=O)(=O)[O-])cc4)cc3)c(S(=O)(=O)[O-])cc2c1)c1ccccc1.[Na+].[Na+] [Direct red 81, direct red 81] | – | – | –
438 µM | – | 2.3 µM | – | – | 4.7 µM | – | 2.24 µM | 5.2 µM | O=C(Nc1ccc(C(=O)Nc2ccc(C(=O)Nc3ccc(S(=O)(=O)O)c4cc(S(=O)(=O)O)cc(S(=O)(=O)O)c34)cc2)cc1)Nc1ccc(C(=O)Nc2ccc(C(=O)Nc3ccc(S(=O)(=O)O)c4cc(S(=O)(=O)O)cc(S(=O)(=O)O)c34)cc2)cc1 [NF279] | – | – | –
214 µM | −3.67 | 12.7 µM | −4.90 | 3.5 µg/mL | 5.5 µM | −5.26 | – | – | direct red 13 | – | – | –
